BindingDB's records for PubMed 9694973 (Alcon Laboratories, 1998)
Several values for one entry are separate records, joined by “and”; a condition that tells them apart may be missing. Equal entries are not always repeated.

Experiments:
[1] = biological target: T1, Prostaglandin E2 receptor EP3 subtype (Bos taurus, UniProt P34979)
T1 sequence (P34979 whole entry): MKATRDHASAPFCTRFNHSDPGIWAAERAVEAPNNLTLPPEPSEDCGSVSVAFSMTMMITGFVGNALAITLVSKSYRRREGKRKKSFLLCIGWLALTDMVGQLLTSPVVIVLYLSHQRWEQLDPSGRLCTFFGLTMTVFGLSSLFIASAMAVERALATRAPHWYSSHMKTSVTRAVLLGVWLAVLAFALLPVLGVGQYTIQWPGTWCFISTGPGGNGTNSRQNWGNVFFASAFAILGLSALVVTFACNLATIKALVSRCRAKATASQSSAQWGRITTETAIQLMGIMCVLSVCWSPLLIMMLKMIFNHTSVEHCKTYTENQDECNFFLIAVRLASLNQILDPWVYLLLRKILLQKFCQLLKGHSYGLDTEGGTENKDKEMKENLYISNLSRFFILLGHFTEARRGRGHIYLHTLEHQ

[2] = biological target: Prostaglandin F2-alpha receptor (Bos taurus, UniProt P37289)
Prostaglandin F2-alpha receptor, sequence (P37289 whole entry): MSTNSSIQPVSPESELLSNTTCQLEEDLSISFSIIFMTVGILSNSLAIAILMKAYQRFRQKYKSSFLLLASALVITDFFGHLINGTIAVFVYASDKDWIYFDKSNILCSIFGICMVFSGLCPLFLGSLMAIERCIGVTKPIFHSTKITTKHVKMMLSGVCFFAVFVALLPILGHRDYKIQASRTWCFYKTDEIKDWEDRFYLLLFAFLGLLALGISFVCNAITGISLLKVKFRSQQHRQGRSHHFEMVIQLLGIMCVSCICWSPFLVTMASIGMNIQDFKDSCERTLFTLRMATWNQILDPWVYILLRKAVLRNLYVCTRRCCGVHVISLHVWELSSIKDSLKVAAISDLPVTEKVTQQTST

SMILES	Ki [1]	Ki [2] [nM]
CC#CCC(C)[C@H](O)/C=C/[C@@H]1[C@H]2C/C(=C/CCCC(=O)O)C[C@H]2C[C@H]1O (some centres not stated)	265 nM	
CCCCC[C@@H](O)/C=C/[C@H]1[C@H](O)CC(=O)[C@@H]1CCCCCCC(=O)O	2 nM and 4 nM	> 10000
CCCCC[C@H](O)/C=C/[C@@H]1[C@H]2C/C(=C\CCCC(=O)O)C[C@H]2C[C@H]1O	4860 nM and 5370 nM	> 10000
O=C(O)CCC/C=C\C[C@H]1C(=O)C[C@@H](O)[C@@H]1/C=C/[C@@H](O)CCc1ccccc1 [17-PHENYL TRINOR PROSTAGLANDIN E2]	16 nM and 7 nM	1410
CCCCC[C@H](O)/C=C/C1[C@H](O)C[C@H](O)[C@@H]1C/C=C\CCCC(=O)O (stereo partly drawn) [(Z)-7-[(1R,3R,5S)-3,5-Dihydroxy-2-((E)-(S)-3-hydroxy-oct-1-enyl)-cyclopentyl]-hept-5-enoic acid]	37 nM and 24 nM	
CCCC1([C@@H](O)C/C=C/C2[C@H](O)CC(=O)[C@@H]2CCCCCCC(=O)OC)CCC1 (some centres not stated) [Butaprost (Methyl Ester)]	> 10000 nM	
O=C(O)CCCC=CCC1C(O)CC(O)C1C=CC(O)COc1cccc(C(F)(F)F)c1 (configuration not stated) [CAS_40666-16-8]	3170 nM and 3500 nM	100
CCCCCC(O)CC=C1C(=O)C=CC1CC=CCCCC(=O)O (configuration not stated) [CAS_41598-07-6]	1580 nM and 1110 nM	2500
CS(=O)(=O)NC(=O)CCCC=CCC1C(=O)CC(O)C1C=CC(O)COc1ccccc1 (configuration not stated) [CAS_60325-46-4]	21 nM and 11 nM	2500
O=C(O)CCCCCCc1c(O)n(Cc2ccccc2)c(=O)n1NCC(O)C1CCCCC1 (configuration not stated) [CAS_122021]	> 10000 nM	> 10000
CC(C)OC(=O)CCC/C=C\C[C@@H]1[C@@H](/C=C/[C@@H](O)CCc2ccccc2)[C@H](O)C[C@@H]1O [CAS_130209-76-6]	388 nM	59
COC(=O)CCC=CCCC1C(=O)CC(O)C1C=CCC(C)(O)C=CC1=CCCC1 (configuration not stated) [CAS_132045]	29 nM	
CCCCCCCC(=O)CCC1C(O)CC(O)C1CC=CCCCC(=O)OC(C)C (configuration not stated) [CAS_151671]	> 10000 nM	5900
CC(=O)NNC(=O)N1Cc2ccccc2Oc2ccc(Cl)cc21 [CAS_4336830]	3000 nM and > 10000 nM	
CC1CCCCC1C(O)C=CC1C(O)CC(Cl)C1CC=CCOCC(=O)O (configuration not stated) [CAS_5311208]	8740 nM	> 10000
O=C(O)CCC/C=C\C[C@@H]1[C@@H](/C=C/[C@@H](O)COc2cccc(Cl)c2)[C@H](O)C[C@@H]1O [CLOPROSTENOL]	90 nM and 91 nM	
CCCCC[C@H](O)/C=C/[C@H]1[C@H](O)CC(=O)[C@@H]1C/C=C\CCCC(=O)O [DINOPROSTONE]	4 nM and 3 nM	3400
CC(C)OC(=O)CCC/C=C/C[C@@H]1[C@@H](CC[C@@H](O)CCc2ccccc2)[C@H](O)C[C@@H]1O [LATANOPROST (PHXA41)]	> 10000 nM	4200
CCCCC(C)(O)CC=CC1C(O)CC(=O)C1CCCCCCC(=O)OC (configuration not stated) [MISOPROSTOL (Methyl Ester)]	25 nM and 54 nM	
O=NN1CSCSC1 [NSC_130741]	> 10000 nM	> 10000
O=C(O)CCCC=CC[C@@H]1[C@@H](CC[C@@H](O)CCc2ccccc2)[C@H](O)C[C@@H]1O [NSC_170548]	> 10000 nM and 7940 nM	98
COC(=O)CCC=C=CCC1C(=O)CC(O)C1C=CC(O)COc1ccccc1 (configuration not stated) [NSC_5282207]	12 nM and 25 nM	1000
O=C(CCC=CCCC1C(=O)CC(O)C1OCC(O)COc1ccccc1)Oc1ccc(NC(=O)c2ccccc2)cc1 (configuration not stated) [NSC_5311224]	8 nM and 11 nM	> 10000
O=C(O)CCC/C=C\C[C@@H]1[C@@H](/C=C/[C@@H](O)COc2ccccc2)[C@H](O)C[C@@H]1O [PGF2Alpha,16-Phenoxy]		22
CCCCC[C@H](O)/C=C/C1[C@@H](C/C=C\CCCC(=O)O)[C@H]2CO[C@@H]1C2 (some centres not stated) [U46619]	> 10000 nM	8900
